{
  "source": "patent US20060151899A1",
  "about": "“Process for producing drug ultramicroparticle and apparatus therefor” (priority 2004, published 2006)",
  "assay": "Solubility under substantially physiological conditions",
  "type": "physicochemical",
  "settings": "pH 5 to 7",
  "data": [
    {"smiles": "NS(=O)(=O)c1ccc(S(=O)(=O)Nc2cccc3c(Cl)c[nH]c23)cc1", "note": "[N-(3-chloro-7-indolyl)-1,4-benzenedisulfonamide]", "values": [
      {"measurement": "Solubility", "value": "insoluble or slightly soluble"}
    ]}
  ]
}
